Measured values reported in patent US20080145313A1, “Compositions and Methods for the Treatment and Prevention of Neoplastic Disorders” (Genesis Research & Development Corporation Limited, priority 2006, published 2008).

Tested on: target transcript mRNA in A549 cells
Assay: Level of mRNA of target transcript in A549 cells by quantitative RT-PCR (Tables 12 and 13)
Assay type: cell-based, human
Settings: 24 h post-transfection; for mRNA knockdown of energy and metabolism gene target transcript, 10 nM: 10 nM siRNA
Description: A549 cells were transfected as described before with 0.1, 1.0 and 10 nM siRNA as listed in Tables 10 and 11 and the relative mRNA levels quantified 24 h post-transfection. RNA was purified from cells using Trizol® extraction as per the manufacturer's protocol (Invitrogen). cDNA was prepared by digesting approximately 200 ng purified RNA with DNAse I (Invitrogen) for 15 minutes at room temperature, followed by 15 minutes at 65° C. in the presence of 25 mM EDTA. 30 ng random primers were added and incubated for 10 minutes at 65° C., 1 minute on ice; Superscript® III polymerase (Invitrogen) was added in presence of 5 nM DTT (Invitrogen) and 1 mM deoxyribonucleotides (Invitrogen), and the reaction incubated at 25° C. for 5 minutes, followed by an hour at 50° C. cDNA was diluted 1:3 in 10 mM Tris pH 7.0, and quantitative RT-PCR carried out on an ABI Prism 7900HT (Applied Biosciences, Inc., Foster City, Calif.) using FastStart TaqMan SYBRGreen (Roche, Basel, Switzerland) or Platinum SYBR Green (Invitrogen) and 360 nM of the primers specific for gene targets and housekeeping genes HPRT and Lamin. Reduction in target mRNA levels following siRNA transfection are given in Tables 12 and 13, together with the gene specific primer sequences. Primer sequences used for the housekeeping genes HPRT and Lamin are given in SEQ ID NO: 4885-4888.

3564 (GCAAGAACGGTGGGATTTACT; chemistry not given here) [compound 3564]
mRNA knockdown of energy and metabolism gene target transcript, 0.1 nM (0.1 nM siRNA): ++ (70-90% mRNA knockdown) | mRNA knockdown of energy and metabolism gene target transcript, 1 nM (1 nM siRNA): +++ (>90% mRNA knockdown)

3541 (GAGCCAAGGGTAGGAGCCCTACACTAGG; chemistry not given here) [compound 3541]
mRNA knockdown of energy and metabolism gene target transcript, 0.1 nM (0.1 nM siRNA): − (<50% mRNA knockdown) | mRNA knockdown of energy and metabolism gene target transcript, 1 nM (1 nM siRNA): − (<50% mRNA knockdown) | mRNA knockdown of energy and metabolism gene target transcript, 10 nM: − (<50% mRNA knockdown)

3536 (AAGGGTAGGAGCCCTACACTAGG; chemistry not given here) [compound 3536]
mRNA knockdown of energy and metabolism gene target transcript, 0.1 nM (0.1 nM siRNA): ++ (70-90% mRNA knockdown) | mRNA knockdown of energy and metabolism gene target transcript, 1 nM (1 nM siRNA): +++ (>90% mRNA knockdown) | mRNA knockdown of energy and metabolism gene target transcript, 10 nM: +++ (>90% mRNA knockdown)

1692 (TTTGCCAACAGGATCTTCGGCCCCATCTG; chemistry not given here) [compound 1692]
mRNA knockdown of energy and metabolism gene target transcript, 0.1 nM (0.1 nM siRNA): − (<50% mRNA knockdown) | mRNA knockdown of energy and metabolism gene target transcript, 1 nM (1 nM siRNA): − (<50% mRNA knockdown)

3542 (GGAGCCAAGGGTAGGAGCCCTACACTAGG; chemistry not given here) [compound 3542]
mRNA knockdown of energy and metabolism gene target transcript, 0.1 nM (0.1 nM siRNA): + (50-70% mRNA knockdown) | mRNA knockdown of energy and metabolism gene target transcript, 1 nM (1 nM siRNA): ++ (70-90% mRNA knockdown)

1699 (AAGAACGTGAAGCTCCCTGACGCCTA; chemistry not given here) [compound 1699]
mRNA knockdown of energy and metabolism gene target transcript, 0.1 nM (0.1 nM siRNA): − (<50% mRNA knockdown) | mRNA knockdown of energy and metabolism gene target transcript, 1 nM (1 nM siRNA): ++ (70-90% mRNA knockdown)

3584 (ACAGAGGAGCAAGATACAGGC; chemistry not given here) [compound 3584]
mRNA knockdown of energy and metabolism gene target transcript, 0.1 nM (0.1 nM siRNA): ++ (70-90% mRNA knockdown) | mRNA knockdown of energy and metabolism gene target transcript, 1 nM (1 nM siRNA): ++ (70-90% mRNA knockdown)

1700 (CAAGAACGTGAAGCTCCCTGACGCCTA; chemistry not given here) [compound 1700]
mRNA knockdown of energy and metabolism gene target transcript, 0.1 nM (0.1 nM siRNA): + (50-70% mRNA knockdown) | mRNA knockdown of energy and metabolism gene target transcript, 1 nM (1 nM siRNA): ++ (70-90% mRNA knockdown)

1698 (AGAACGTGAAGCTCCCTGACGCCTA; chemistry not given here) [compound 1698]
mRNA knockdown of energy and metabolism gene target transcript, 0.1 nM (0.1 nM siRNA): + (50-70% mRNA knockdown) | mRNA knockdown of energy and metabolism gene target transcript, 1 nM (1 nM siRNA): + (50-70% mRNA knockdown)

3535 (AGGGTAGGAGCCCTACACTAGG; chemistry not given here) [compound 3535]
mRNA knockdown of energy and metabolism gene target transcript, 0.1 nM (0.1 nM siRNA): ++ (70-90% mRNA knockdown) | mRNA knockdown of energy and metabolism gene target transcript, 1 nM (1 nM siRNA): +++ (>90% mRNA knockdown)

3544 (CTACCGCGAGCTGCGCTGGTT; chemistry not given here) [compound 3544]
mRNA knockdown of energy and metabolism gene target transcript, 0.1 nM (0.1 nM siRNA): ++ (70-90% mRNA knockdown) | mRNA knockdown of energy and metabolism gene target transcript, 1 nM (1 nM siRNA): ++ (70-90% mRNA knockdown)

3596 (AACAGGAAGATCCTGCTCATCAG; chemistry not given here) [compound 3596]
mRNA knockdown of energy and metabolism gene target transcript, 0.1 nM (0.1 nM siRNA): + (50-70% mRNA knockdown) | mRNA knockdown of energy and metabolism gene target transcript, 1 nM (1 nM siRNA): ++ (70-90% mRNA knockdown)

3550 (AGGCAACTACCGCGAGCTGCGCTGGTT; chemistry not given here) [compound 3550]
mRNA knockdown of energy and metabolism gene target transcript, 0.1 nM (0.1 nM siRNA): ++ (70-90% mRNA knockdown) | mRNA knockdown of energy and metabolism gene target transcript, 1 nM (1 nM siRNA): ++ (70-90% mRNA knockdown) | mRNA knockdown of energy and metabolism gene target transcript, 10 nM: +++ (>90% mRNA knockdown)

1697 (GAACGTGAAGCTCCCTGACGCCTA; chemistry not given here) [compound 1697]
mRNA knockdown of energy and metabolism gene target transcript, 0.1 nM (0.1 nM siRNA): ++ (70-90% mRNA knockdown) | mRNA knockdown of energy and metabolism gene target transcript, 1 nM (1 nM siRNA): + (50-70% mRNA knockdown)

3578 (TGAAGCGGTTTTTCTCCAAGTACTC; chemistry not given here) [compound 3578]
mRNA knockdown of energy and metabolism gene target transcript, 0.1 nM (0.1 nM siRNA): + (50-70% mRNA knockdown) | mRNA knockdown of energy and metabolism gene target transcript, 1 nM (1 nM siRNA): ++ (70-90% mRNA knockdown)

3556 (TACGGATGTTGGGATCATTATTA; chemistry not given here) [compound 3556]
mRNA knockdown of energy and metabolism gene target transcript, 0.1 nM (0.1 nM siRNA): ++ (70-90% mRNA knockdown) | mRNA knockdown of energy and metabolism gene target transcript, 1 nM (1 nM siRNA): ++ (70-90% mRNA knockdown)

1690 (TGCCAACAGGATCTTCGGCCCCATCTG; chemistry not given here) [compound 1690]
mRNA knockdown of energy and metabolism gene target transcript, 0.1 nM (0.1 nM siRNA): ++ (70-90% mRNA knockdown) | mRNA knockdown of energy and metabolism gene target transcript, 1 nM (1 nM siRNA): ++ (70-90% mRNA knockdown)

3543 (TGGAGCCAAGGGTAGGAGCCCTACACTAGG; chemistry not given here) [compound 3543]
mRNA knockdown of energy and metabolism gene target transcript, 0.1 nM (0.1 nM siRNA): ++ (70-90% mRNA knockdown) | mRNA knockdown of energy and metabolism gene target transcript, 1 nM (1 nM siRNA): ++ (70-90% mRNA knockdown)

SEQ ID NO: 4915: siRNA targeting SLC19A2 (ThTr1) (chain 1 ATGACATTCAGGCTGAACAGCGACC; chain 2 AUGACAUUCAGGCUGAACAGCGACC; chemistry not given here; one strand in two spellings)
mRNA knockdown of transporter gene target transcript, 0.1 nM (0.1 nM siRNA): ++ (70-90% mRNA knockdown) | mRNA knockdown of transporter gene target transcript, 1 nM (1 nM siRNA): ++ (70-90% mRNA knockdown)

1689 (GCCAACAGGATCTTCGGCCCCATCTG; chemistry not given here) [compound 1689]
mRNA knockdown of energy and metabolism gene target transcript, 0.1 nM (0.1 nM siRNA): − (<50% mRNA knockdown) | mRNA knockdown of energy and metabolism gene target transcript, 1 nM (1 nM siRNA): ++ (70-90% mRNA knockdown)
